Results as given in patent publication US20260125378A2, “Heterocyclic Compounds” (BeOne Medicines I GmbH, priority 2023, published 2026).

Columns and labels:
[1] = molecular target: T1, Full length DGKζ (in-house protein M1-V929) (Homo sapiens, UniProt Q13574); assay: Biochemical DGK IC50 assay (ADP-Glo, lipid micelle substrate), DGKζ; settings: 1 hour preincubation, 1 hour reaction, room temperature
T1 construct: His (N); TEV site (N); made in house; host or cells: Sf9 insect cells (Bac-to-Bac baculovirus)
Procedure: (§1) Enzymatic reactions of DGKζ, DGKα and DGKδ were performed using ADP-Glo assay with lipid micelle substrate. […] Full length DGKα (D21-10BG, SignalChem) and full length DGKδ (D23-10G, SignalChem) were purchased. Lipid micelle was prepared by dissolving DAG (Sigma, 317505-10 MG) and PS (Sigma, P7769-100 MG) with chloroform which was furtherly removed by rotary evaporation. The obtained residue was resuspended in buffer containing 25 mM HEPES pH 7.0, 0.5 mM EDTA and 160 mM Octyl β-D glucopyranoside by vigorous mixing and ultrasonic (IID, Scientz).
(§2) The inhibition activities testing for the compound disclosed herein were carried out at room temperature in assay buffer containing 50 mM HEPES, 10 mM MgCl2, 0.01% BSA, 0.1 mM Na3VO4, 0.005% Tween-20 and 0.01 mM CaCl2). Compounds in DMSO were dispensed into wells of a black 384 well plate (Corning 4514) using D300e digital dispenser (Tecan). […] 3 μL 2× enzyme solution was added to wells. […] After 1 hour reaction, 5 μL ADP-Glo reagent (Promga V9101) was added and incubated for 40 minutes. 10 μL Kinase Detection reagent was added and incubated for 30 minutes. Luminescence was measured on a microplate reader (PHERAstar FSX, BMG labtech). The IC50S are calculated based on inhibition of enzyme activity in the presence of increasing concentrations of compounds.
Human His-TEV-DGK-zeta-pFastBac1 and human baculovirus samples was generated using the Bac- to -Bac baculovirus expression system (Invitrogen) according to the manufacturer's protocol. The DNA used for expression of DGK-zeta, have SEQ ID Nos: 1. Baculovirus amplification was achieved using infected SF9 cells at 1:2000 virus/cells ratios, and grown for 96 hours at 27° C. post-transfected.
The expression scaled up for each protein was carried out in the […] from CORNING. 4 L of 3×10^6 cells/mL Sf9 cells (Expression System, Invitrogen) grown in SF900™ II SFM insect medium (Expression System) was infected with virus stock at 1:200 virus/cells ratio, and grown for 48 hours at 27° C. post-transfection. The infected cell culture was harvested by centrifugation at 6000 rpm for 15 min 4° C. in a SORVALL LYNX6000 centrifuge. The cell pellets were stored at −80° C.
Full length human DGKζ produced as described above, was purified from Sf9 baculovirus-infected insect cell paste. The cells were lysed using sonication method, and the lysates were clarified by centrifugation.

[2] = molecular target: T2, Full length DGKα (D21-10BG, SignalChem) (Homo sapiens, UniProt P23743); assay: Biochemical DGK IC50 assay (ADP-Glo, lipid micelle substrate), DGKα; settings: 1 hour preincubation, 1 hour reaction, room temperature
T2 construct: Full length DGKα (D21-10BG, SignalChem); purchased SignalChem D21-10BG
Procedure: as §1, §2

T2 sequence (P23743 whole entry): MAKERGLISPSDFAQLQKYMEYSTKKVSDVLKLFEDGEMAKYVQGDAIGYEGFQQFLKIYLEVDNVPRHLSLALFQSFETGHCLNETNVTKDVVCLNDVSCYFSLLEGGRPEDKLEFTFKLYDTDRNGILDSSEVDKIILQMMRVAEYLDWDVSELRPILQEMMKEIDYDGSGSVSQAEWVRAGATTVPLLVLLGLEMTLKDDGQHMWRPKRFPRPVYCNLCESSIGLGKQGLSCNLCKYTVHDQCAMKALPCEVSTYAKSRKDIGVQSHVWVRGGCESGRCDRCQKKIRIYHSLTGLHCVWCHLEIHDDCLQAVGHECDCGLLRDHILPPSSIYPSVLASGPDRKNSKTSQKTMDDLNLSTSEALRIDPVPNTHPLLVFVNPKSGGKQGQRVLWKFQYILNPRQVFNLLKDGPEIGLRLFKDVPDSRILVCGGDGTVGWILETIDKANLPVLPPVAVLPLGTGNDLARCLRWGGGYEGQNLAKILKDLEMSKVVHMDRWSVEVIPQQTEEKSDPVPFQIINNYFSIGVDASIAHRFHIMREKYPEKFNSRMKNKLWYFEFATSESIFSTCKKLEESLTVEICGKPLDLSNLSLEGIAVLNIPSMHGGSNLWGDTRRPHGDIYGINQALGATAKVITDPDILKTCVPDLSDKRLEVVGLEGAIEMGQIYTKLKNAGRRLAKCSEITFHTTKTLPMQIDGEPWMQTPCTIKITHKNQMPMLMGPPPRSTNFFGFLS
T1 sequence (Q13574 1-929 isoform Q13574-4): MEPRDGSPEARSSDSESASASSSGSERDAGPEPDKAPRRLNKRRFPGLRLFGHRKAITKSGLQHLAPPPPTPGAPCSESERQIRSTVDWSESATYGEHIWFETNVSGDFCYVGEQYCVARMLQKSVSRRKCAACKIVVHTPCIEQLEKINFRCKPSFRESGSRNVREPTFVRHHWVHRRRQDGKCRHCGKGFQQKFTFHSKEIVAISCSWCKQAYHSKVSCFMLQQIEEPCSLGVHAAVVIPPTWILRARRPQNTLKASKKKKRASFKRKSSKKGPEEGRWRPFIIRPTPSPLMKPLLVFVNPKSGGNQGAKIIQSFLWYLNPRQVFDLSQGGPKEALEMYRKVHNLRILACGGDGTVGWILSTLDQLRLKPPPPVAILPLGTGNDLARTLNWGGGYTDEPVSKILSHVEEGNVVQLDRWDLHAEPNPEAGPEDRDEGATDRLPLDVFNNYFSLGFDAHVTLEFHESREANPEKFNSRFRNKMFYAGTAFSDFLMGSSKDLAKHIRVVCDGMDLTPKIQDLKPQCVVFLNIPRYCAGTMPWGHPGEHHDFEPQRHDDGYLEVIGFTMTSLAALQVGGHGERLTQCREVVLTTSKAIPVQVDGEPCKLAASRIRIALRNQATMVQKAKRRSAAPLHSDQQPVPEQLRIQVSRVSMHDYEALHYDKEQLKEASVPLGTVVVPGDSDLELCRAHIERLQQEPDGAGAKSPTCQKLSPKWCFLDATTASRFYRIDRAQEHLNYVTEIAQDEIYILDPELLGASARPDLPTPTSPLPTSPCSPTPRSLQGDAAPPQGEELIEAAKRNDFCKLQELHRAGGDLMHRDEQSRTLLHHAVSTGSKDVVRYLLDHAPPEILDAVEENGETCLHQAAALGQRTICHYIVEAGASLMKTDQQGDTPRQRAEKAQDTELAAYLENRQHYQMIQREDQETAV

IC50 [1] [nM]	IC50 [2] [nM]	Compound
878	5770	Cc1ccc(C(C)N2C[C@H](C)N(c3cc(=O)n(C)c4c3nc(CC#N)n4C)C[C@H]2C)cc1 (single isomer, unassigned) [Compound A5a]
88	616	Cc1ccc(C(C)N2C[C@H](C)N(c3cc(=O)n(C)c4c3nc(CC#N)n4C)C[C@H]2C)cc1 (single isomer, unassigned) [Compound A5b]
3110	> 10000	CC(c1cccnc1C(F)(F)F)N1C[C@H](C)N(c2cc(=O)n(C)c3c2nc(CC#N)n3C)C[C@H]1C (single isomer, unassigned) [Compound A7a]
35	97600	CC(c1cccnc1C(F)(F)F)N1C[C@H](C)N(c2cc(=O)n(C)c3c2nc(CC#N)n3C)C[C@H]1C (single isomer, unassigned) [Compound A7b]
1480	> 10000	Cc1ccc(C(C)N2C[C@H](C)N(c3cc(=O)n(C)c4c3nc(CC#N)n4C)C[C@H]2C)c(C(F)(F)F)c1 (single isomer, unassigned) [Compound A8a]
97	> 150000	Cc1ccc(C(C)N2C[C@H](C)N(c3cc(=O)n(C)c4c3nc(CC#N)n4C)C[C@H]2C)c(C(F)(F)F)c1 (single isomer, unassigned) [Compound A8b]
8590	> 10000	CC(c1ccc(F)cc1C(F)(F)F)N1C[C@H](C)N(c2cc(=O)n(C)c3[nH]c(CC#N)nc23)C[C@H]1C (single isomer, unassigned) [Compound A9a]
169	> 10000	CC(c1ccc(F)cc1C(F)(F)F)N1C[C@H](C)N(c2cc(=O)n(C)c3[nH]c(CC#N)nc23)C[C@H]1C (single isomer, unassigned) [Compound A9b]
405	> 10000	COC[C@H]1CN(C(C)c2ccc(F)cc2C(F)(F)F)[C@H](C)CN1c1nc(=O)n(C)c2c1nc(CC#N)n2C (single isomer, unassigned) [Compound A10a]
14	> 10000	COC[C@H]1CN(C(C)c2ccc(F)cc2C(F)(F)F)[C@H](C)CN1c1nc(=O)n(C)c2c1nc(CC#N)n2C (single isomer, unassigned) [Compound A10b]
764	57800	COC[C@H]1CN(C(C)c2ccc3c(c2)OCCO3)[C@H](C)CN1c1nc(=O)n(C)c2c1nc(CC#N)n2C (single isomer, unassigned) [Compound A11a]
14	11900	COC[C@H]1CN(C(C)c2ccc3c(c2)OCCO3)[C@H](C)CN1c1nc(=O)n(C)c2c1nc(CC#N)n2C (single isomer, unassigned) [Compound A11b]
2.7	18800	COC[C@H]1CN(C(C)c2ccc3c(c2)OC(C)(C)CO3)[C@H](C)CN1c1nc(=O)n(C)c2c1nc(CC#N)n2C (single isomer, unassigned) [Compound A12a]
57	27400	COC[C@H]1CN(C(C)c2ccc3c(c2)OC(C)(C)CO3)[C@H](C)CN1c1nc(=O)n(C)c2c1nc(CC#N)n2C (single isomer, unassigned) [Compound A12b]
5060	> 150000	COC[C@H]1CN(C(C)c2ccc3ncc(C)nc3c2)[C@H](C)CN1c1nc(=O)n(C)c2c1nc(CC#N)n2C (single isomer, unassigned) [Compound A13a]
54	> 150000	COC[C@H]1CN(C(C)c2ccc3ncc(C)nc3c2)[C@H](C)CN1c1nc(=O)n(C)c2c1nc(CC#N)n2C (single isomer, unassigned) [Compound A13b]
1410	> 10000	Cc1ccc(C(C)N2C[C@H](C)N(c3c(F)c(=O)n(C)c4c3nc(CC#N)n4C)C[C@H]2C)c(C(F)(F)F)c1 (single isomer, unassigned) [Compound A15a]
291	> 10000	Cc1ccc(C(C)N2C[C@H](C)N(c3c(F)c(=O)n(C)c4c3nc(CC#N)n4C)C[C@H]2C)c(C(F)(F)F)c1 (single isomer, unassigned) [Compound A15b]
133	1460	Cc1cccc(C(C)N2C[C@H](C)N(c3c(F)c(=O)n(C)c4c3nc(CC#N)n4C)C[C@H]2C)c1C(F)(F)F (single isomer, unassigned) [Compound A17a]

IC50 [1] [nM]	IC50 [2] [nM]	Compound
409	1580	Cc1cccc(C(C)N2C[C@H](C)N(c3c(F)c(=O)n(C)c4c3nc(CC#N)n4C)C[C@H]2C)c1C(F)(F)F (single isomer, unassigned) [Compound A17b]
19	23600	CC(c1ccc2c(c1)OCCO2)N1C[C@H](C)N(c2c(F)c(=O)n(C)c3c2nc(CC#N)n3C)C[C@H]1C (single isomer, unassigned) [Compound A18a]
32	6380	CC(c1ccc2c(c1)OCCO2)N1C[C@H](C)N(c2c(F)c(=O)n(C)c3c2nc(CC#N)n3C)C[C@H]1C (single isomer, unassigned) [Compound A18b]
2.8	27500	CC(c1ccc2c(c1)OC(C)(C)CO2)N1C[C@H](C)N(c2c(F)c(=O)n(C)c3c2nc(CC#N)n3C)C[C@H]1C (single isomer, unassigned) [Compound A19a]
82	6940	CC(c1ccc2c(c1)OC(C)(C)CO2)N1C[C@H](C)N(c2c(F)c(=O)n(C)c3c2nc(CC#N)n3C)C[C@H]1C (single isomer, unassigned) [Compound A19b]
26	> 10000	CC(c1ccc2nccnc2c1)N1C[C@H](C)N(c2c(F)c(=O)n(C)c3c2nc(CC#N)n3C)C[C@H]1C (single isomer, unassigned) [Compound A22a]
8	63200	Cc1cnc2ccc(C(C)N3C[C@H](C)N(c4c(F)c(=O)n(C)c5c4nc(CC#N)n5C)C[C@H]3C)cc2n1 (single isomer, unassigned) [Compound A23a]
94	16200	Cc1cnc2ccc(C(C)N3C[C@H](C)N(c4c(F)c(=O)n(C)c5c4nc(CC#N)n5C)C[C@H]3C)cc2n1 (single isomer, unassigned) [Compound A23b]
975	> 10000	COc1cc(F)ccc1C(C)N1C[C@H](C)N(c2nc(=O)n(C)c3c2nc(CC#N)n3C)C[C@H]1C (single isomer, unassigned) [Compound A24a]
42	131000	COc1cc(F)ccc1C(C)N1C[C@H](C)N(c2nc(=O)n(C)c3c2nc(CC#N)n3C)C[C@H]1C (single isomer, unassigned) [Compound A24b]
569	> 10000	COCc1cc(F)ccc1C(C)N1C[C@H](C)N(c2nc(=O)n(C)c3c2nc(CC#N)n3C)C[C@H]1C (single isomer, unassigned) [Compound A27a]
15	99500	COCc1cc(F)ccc1C(C)N1C[C@H](C)N(c2nc(=O)n(C)c3c2nc(CC#N)n3C)C[C@H]1C (single isomer, unassigned) [Compound A27b]
437	> 150000	CC(OC(F)F)c1cc(F)ccc1C(C)N1C[C@H](C)N(c2nc(=O)n(C)c3c2nc(CC#N)n3C)C[C@H]1C (single isomer, unassigned) [Compound A29a]
4	136000	CC(OC(F)F)c1cc(F)ccc1C(C)N1C[C@H](C)N(c2nc(=O)n(C)c3c2nc(CC#N)n3C)C[C@H]1C (single isomer, unassigned) [Compound A29b]
3740	> 10000	Cc1ccc(C(C)N2C[C@H](C)N(c3nc(=O)n(C)c4c3nc(CC#N)n4C)C[C@H]2C)c(C(F)(F)F)c1 (single isomer, unassigned) [Compound A32a]
138	5590	Cc1ccc(C(C)N2C[C@H](C)N(c3nc(=O)n(C)c4c3nc(CC#N)n4C)C[C@H]2C)c(C(F)(F)F)c1 (single isomer, unassigned) [Compound A32b]
804	> 10000	CC(c1ccc(F)cc1C(F)(F)F)N1C[C@H](C)N(c2nc(=O)n(C)c3c2nc(CC#N)n3C)C[C@H]1C (single isomer, unassigned) [Compound A33a]
3	> 10000	CC(c1ccc(F)cc1C(F)(F)F)N1C[C@H](C)N(c2nc(=O)n(C)c3c2nc(CC#N)n3C)C[C@H]1C (single isomer, unassigned) [Compound A33b]
